Source: patent US20130089601A1, “METHOD FOR TREATING ATHEROSCLEROSIS” (KAOHSIUNG MEDICAL UNIVERSITY, priority 2009, published 2013)

Experiments:
[1] = tested on: TNF-a; assay: Real-time qPCR of TNF-a mRNA in HUVECs co-cultured with transfected HASMCs; type: cell-based, human; details: co-cultured with microRNA-195-transfected HASMCs
Experimental: (§1) HASMCs were transfected with negative control microRNA or microRNA-195 with or without the presence of oxLDL. MicroRNA-195-transfected HASMCs were co-cultured with HUVEC. Real-time qPCR analysis of mRNA levels for genes surrogating endothelial functions as well as atherosclerosis, such as vascular cell adhesion molecule-1 (VCAM-1), […] (TNF-a) and interleukin-6 (IL-6), and vasodilation gene, endothelial nitric oxide synthase (eNOS), were determined in HUVECs.

[2] = tested on: apoE−/− mice
Text: Lentivector Expression System was purchased from System Biosciences. The microRNA expression vectors pCDH-CMV-MCS-EF1- GreenPuro vector (System Biosciences, SBI) contain a CMV-driven EGFP reporter. The full length sequence of microRNA-195 was amplified from genomic DNA by polymerase chain reaction (PCR). Primer pairs for microRNA expression vectors were microRNA-195 forward: 5′-[…]-3′ (SEQ ID NO: 3), and reverse: 5′-[…]-3′ (SEQ ID NO: 4). The PCR products were inserted to the microRNA expression vectors. The clones carrying microRNA-195 was named pCDH-miR-195. The pCDH vector was used as control.
The miRNA expression vectors (pCDH-miR-195 and pCDH mock vector) and Lentivirus Package plasmid mix (System Biosciences, SBI) were cotransfected into 293TN cells with PureFection™ Transfection Reagent (System Biosciences; Mountain View, Calif., USA), and Lenti-X Concentrator (Clontech, USA) was used for concentration. Infectious titers were determined by counting GFP positive-293T cells using a fluorescence microscope.
0.1 ml PBS with 10^7 IFU Lentivirus containing pCDH-miR-195 or a control vector was injected to the tail veil of the apoE−/− mice that were under a high fat diet. The injection was repeated once a week for a total of 12 weeks. Changes in body weight of the apoE−/− mice treated with Lentivirus containing pCDH-miR-195 (the microRNA-195 treatment group) and the apoE−/− mice treated with Lentivirus containing the control vector (the control group) were recorded every week and are shown in FIG. 7. When the experiment was completed, the mice of the microRNA-195 treatment group and the mice of the control group were sacrificed.
Biochemical indexes, such as blood urea nitrogen (BUN) and creatinine (CRE) for renal function, GOT (AST) and GPT (ALT) for liver function, fasting blood sugar (GLU), total cholesterol (T-CHO), high density lipoprotein (HDL), low density lipoprotein (LDL) and triglyceride (TG) of the blood of mice of the microRNA-195 treatment group and mice of the control group were determined and are shown in Table 2, respectively. Indexes for weight of various organs to body weight (organ weight/body weight) of mice of the microRNA-195 treatment group and the mice of the control group were determined and are shown in Table 3, respectively.

[3] = tested on: VCAM-1; assay: Real-time qPCR of VCAM-1 mRNA in HUVECs co-cultured with transfected HASMCs; type: cell-based, human; details: co-cultured with microRNA-195-transfected HASMCs
Experimental: as §1

[4] = tested on: VSMC cells; assay: Chemotactic migration of VSMC (Transwell); type: cell-based, human; details: 100 nM for 24 hours, ox-LDL 40 μg/ml
Experimental: Chemotactic migration is another characteristic of atherosclerosis and can be used as another line of evidence of atherosclerotic change for the cultured VSMC cells. This experiment was assayed by using a microchemotactic chamber and polycarbonate filters with pores of […] in diameter (Transwell, Millipore). After incubated with microRNA-195 (Pre-miR miRNA, hsa-miR-195 (product ID PM10827), Ambion Inc.) (100 nM) or an inhibitor (100 nM) for 24 hours, the VSMC cells were trypsinized and suspended with a serum free medium. A volume (300 μl) of a 1×10^4 cell suspension was placed in the upper chamber, the medium containing ox-LDL (40 μg/ml, each) was placed in the lower and upper chamber. The cell suspension was incubated at a temperature of 37° C. under 5% CO2 in air for 24 hours. After incubation, the VSMC cells on the upper side of the filter were scraped off, and the cells that had directly migrated to the lower side of the filter were trypsinized. The cells were fixed with methanol and stained with a Giemsa solution (Merck). Quantification of chemotactic migration was performed using the hemocytometer.

[5] = tested on: MCP-1; assay: MCP-1 secreted from VSMC, sandwich enzyme immunoassay; type: cell-based, human
Experimental: Monocyte chemotactic protein-1 (MCP-1) is a well established atherosclerotic biomarker and it was examined to further test for the influence of microRNA-195 on the atherogenic biomarker. VSMC cells in six-well plates were grown to confluence and then cultivated in a serum-free medium for 24 hours before the experiment. After transfection of microRNA-195 for 24 hours, the cells were further incubated with ox-LDL and simvastatin for another 24 hours. The supernatants of the conditioned medium were collected and frozen at −70° C. The culture supernatants were analyzed to determine the MCP-1 using Sandwich Enzyme Immunoassay kits (BD Biosciences) according to the manufacturer protocol.

[6] = tested on: IL-6; assay: Real-time qPCR of IL-6 mRNA in HUVECs co-cultured with transfected HASMCs; type: cell-based, human; details: co-cultured with microRNA-195-transfected HASMCs
Experimental: as §1

[7] = tested on: eNOS; assay: Real-time qPCR of eNOS mRNA in HUVECs co-cultured with transfected HASMCs; type: cell-based, human; details: co-cultured with microRNA-195-transfected HASMCs
Experimental: as §1

[8] = Lentivirus containing pCDH-miR-195, 12 weeks, high fat diet
[9] = Lentivirus containing pCDH-miR-195 vs control group, from Table 2
[10] = blood, Lentivirus containing pCDH-miR-195 10^7 IFU tail vein weekly, 12 weeks, high fat diet

In the case of “microRNA-195: Pre-miR miRNA, hsa-miR-195 (product ID PM10827), Ambion Inc., which mimics precursor for mature human miR-195; mimic 5′-UAGCAGCACAGAAAUAUUGGC-3′ (SEQ ID NO: 5) (chemistry not given here)”, the “TNF-a mRNA level in HUVECs” value [1] was “suppresses”, the “Heart weight/body weight, average” value [2, 8] was 0.49% and the “Kidney weight/body weight, average” value [2, 8] was 1.20%. The “Liver weight/body weight, average” value [2, 8] was 3.35%, the “Lung weight/body weight, average” value [2, 8] was 0.72% and the “Spleen weight/body weight, average” value [2, 8] was 0.32%. The HDL increase [2, 9] was 77%, the triglyceride decrease [2, 9] was 26% and the “blood sugar level versus placebo treated animals” value ([2]; Lentivirus containing pCDH-miR-195 vs control vector, high-fat diet) was “lower”. The “control of the increase of body weight” value ([2]; Lentivirus containing pCDH-miR-195 vs control vector, high-fat diet, 12 weeks) was “better than the placebo”, the “BUN (blood urea nitrogen), average” value [2, 10] was 21.5 and the “CRE (creatinine), average” value [2, 10] was 0.7. For the same substance, the “GLU (fasting blood sugar), average” value [2, 10] was 166.5, the “GOT (AST), average” value [2, 10] was 118.5 and the “GPT (ALT), average” value [2, 10] was 28.5. For the same substance, the “HDL (high density lipoprotein), average” value [2, 10] was 11.5, the “T-CHO (total cholesterol), average” value [2, 10] was 711.5 and the “TG (triglyceride), average” value [2, 10] was 141. For the same substance, the “VCAM-1 mRNA level in HUVECs” value [3] was “suppresses”, the “chemotactic migration, percentage of migrated cells compared to control medium cells” value [4] was 137.6% and the “effect on reducing the atherogenic biomarker (MCP-1) compared with simvastatin” value ([5]; ox-LDL stimulation) was “stronger effect”. For the same substance, the MCP-1 levels ([5]; transfection 24 hours then ox-LDL 24 hours, culture supernatant) was “significantly decrease”, the “IL-6 mRNA level in HUVECs” value [6] was “suppresses” and the “eNOS mRNA level in HUVECs” value [7] was “increases”.
